Results reported in US20260285850A1, “SUBSTITUTED OXAZOLIDINONES AND IMIDAZOLINONES AS HERBICIDES” (FMC CORPORATION, priority 2023, published 2026).

What was measured:
Format in all cases: in vivo
[1] = tested on: barnyardgrass (Echinochloa crus-galli); test: Test A preemergence soil spray, visual injury rating 0-100; conditions: 10 days, 0 = no effect, 100 = complete control
How it was run: (§1)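 Greenhouse test: loam/sand pots received a surfactant-containing formulation, as a preemergence directed soil spray or a postemergence spray on young plants. Injury was judged visually at day 10 relative to untreated controls.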

[2] = tested on: blackgrass (Alopecurus myosuroides); test: as above; conditions: 10 days, 0 = no effect, 100 = complete control
How it was run: as §1

corn (Zea mays) [3] = test: as above; conditions: 10 days, 0 = no effect, 100 = complete control
How it was run: as §1

[4] = tested on: green foxtail (Setaria viridis); test: as above; conditions: 10 days, 0 = no effect, 100 = complete control
How it was run: as §1

kochia (Bassia scoparia) [5] = test: as above; conditions: 10 days, 0 = no effect, 100 = complete control
How it was run: as §1

[6] = tested on: oat, wild (wild oat, Avena fatua); test: as above; conditions: 10 days, 0 = no effect, 100 = complete control
How it was run: as §1

[7] = tested on: palmer (palmer amaranth, palmer pigweed, Amaranthus palmeri); test: as above; conditions: 10 days, 0 = no effect, 100 = complete control
How it was run: as §1

[8] = tested on: ragweed (common ragweed, Ambrosia artemisiifolia); test: as above; conditions: 10 days, 0 = no effect, 100 = complete control
How it was run: as §1

[9] = tested on: ryegrass, Italian (italian ryegrass, Lolium multiflorum); test: as above; conditions: 10 days, 0 = no effect, 100 = complete control
How it was run: as §1

soybean (Glycine max) [10] = test: as above; conditions: 10 days, 0 = no effect, 100 = complete control
How it was run: as §1

[11] = tested on: wheat (Triticum aestivum); test: as above; conditions: 10 days, 0 = no effect, 100 = complete control
How it was run: as §1

[12] = tested on: barnyardgrass (Echinochloa crus-galli); test: Test A postemergence application, visual injury rating 0-100; conditions: Postemergence, 10 days, 0 is no effect, 100 is complete control
How it was run: as §1

[13] = tested on: blackgrass (Alopecurus myosuroides); test: as above; conditions: Postemergence, 10 days, 0 is no effect, 100 is complete control
How it was run: as §1

corn (Zea mays) [14] = test: as above; conditions: Postemergence, 10 days, 0 is no effect, 100 is complete control
How it was run: as §1

[15] = tested on: galium (catchweed bedstraw, Galium aparine); test: as above; conditions: Postemergence, 10 days, 0 is no effect, 100 is complete control
How it was run: as §1

[16] = tested on: green foxtail (Setaria viridis); test: as above; conditions: Postemergence, 10 days, 0 is no effect, 100 is complete control
How it was run: as §1

[17] = tested on: horseweed (Erigeron canadensis); test: as above; conditions: Postemergence, 10 days, 0 is no effect, 100 is complete control
How it was run: as §1

kochia (Bassia scoparia) [18] = test: as above; conditions: Postemergence, 10 days, 0 is no effect, 100 is complete control
How it was run: as §1

[19] = tested on: oat, wild (wild oat, Avena fatua); test: as above; conditions: Postemergence, 10 days, 0 is no effect, 100 is complete control
How it was run: as §1

[20] = tested on: palmer (palmer amaranth, palmer pigweed, Amaranthus palmeri); test: as above; conditions: Postemergence, 10 days, 0 is no effect, 100 is complete control
How it was run: as §1

[21] = tested on: ragweed (common ragweed, Ambrosia artemisiifolia); test: as above; conditions: Postemergence, 10 days, 0 is no effect, 100 is complete control
How it was run: as §1

[22] = tested on: ryegrass, Italian (italian ryegrass, Lolium multiflorum); test: as above; conditions: Postemergence, 10 days, 0 is no effect, 100 is complete control
How it was run: as §1

soybean (Glycine max) [23] = test: as above; conditions: Postemergence, 10 days, 0 is no effect, 100 is complete control
How it was run: as §1

[24] = tested on: wheat (Triticum aestivum); test: as above; conditions: Postemergence, 10 days, 0 is no effect, 100 is complete control
How it was run: as §1

[25] = tested on: barnyardgrass (Echinochloa crusgalli); test: Test B flooded paddy test, visual plant response rating 0-100; conditions: 250 g ai/ha, Flood, applied to paddy water, evaluated after 13 days
How it was run: (§2)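 Visual scores versus untreated controls were recorded 13 days after treatment of greenhouse-held plants. At the 2-leaf stage, pots were flooded 3 cm above the soil surface and compounds added straight to the water.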

[26] = tested on: ducksalad (Heteranthera limosa); test: as above; conditions: 250 g ai/ha, Flood, applied to paddy water, evaluated after 13 days
How it was run: as §2

rice (Oryza sativa) = test: as above; conditions: 250 g ai/ha, Flood, applied to paddy water, evaluated after 13 days
How it was run: as §2

[27] = tested on: sedge, umbrella (small-flower umbrella sedge, Cyperus difformis); test: as above; conditions: 250 g ai/ha, Flood, applied to paddy water, evaluated after 13 days
How it was run: as §2

Structure (SMILES): CSCCOC(=O)C1C=CC(NC(=O)C2(C)CN(c3cc(Cl)cc(Cl)c3)C(=O)O2)C1 (stereo not shown) [Compound 45]
- Barnyardgrass plant response rating (0 to 100 scale) ([1]; 125 g ai/ha): 100
- Barnyardgrass plant response rating (0 to 100 scale) ([1]; 500 g ai/ha): 100
- Blackgrass plant response rating (0 to 100 scale) ([2]; 125 g ai/ha): 90
- Blackgrass plant response rating (0 to 100 scale) ([2]; 500 g ai/ha): 90
- Corn plant response rating (0 to 100 scale) (corn (Zea mays) [3]; 125 g ai/ha): 20
- Corn plant response rating (0 to 100 scale) (corn (Zea mays) [3]; 500 g ai/ha): 60
- Foxtail, Green plant response rating (0 to 100 scale) ([4]; 125 g ai/ha): 90
- Foxtail, Green plant response rating (0 to 100 scale) ([4]; 500 g ai/ha): 100
- Kochia plant response rating (0 to 100 scale) (kochia (Bassia scoparia) [5]; 125 g ai/ha): 20
- Kochia plant response rating (0 to 100 scale) (kochia (Bassia scoparia) [5]; 500 g ai/ha): 100
- Oat, Wild plant response rating (0 to 100 scale) ([6]; 125 g ai/ha): 80
- Oat, Wild plant response rating (0 to 100 scale) ([6]; 500 g ai/ha): 90
- Amaranth, Palmer plant response rating (0 to 100 scale) ([7]; 125 g ai/ha): 100
- Amaranth, Palmer plant response rating (0 to 100 scale) ([7]; 500 g ai/ha): 100
- Ragweed plant response rating (0 to 100 scale) ([8]; 125 g ai/ha): 20
- Ragweed plant response rating (0 to 100 scale) ([8]; 500 g ai/ha): 70
- Ryegrass, Italian plant response rating (0 to 100 scale) ([9]; 125 g ai/ha): 90
- Ryegrass, Italian plant response rating (0 to 100 scale) ([9]; 500 g ai/ha): 90
- Soybean plant response rating (0 to 100 scale) (soybean (Glycine max) [10]; 125 g ai/ha): 30
- Soybean plant response rating (0 to 100 scale) (soybean (Glycine max) [10]; 500 g ai/ha): 60
- Wheat plant response rating (0 to 100 scale) ([11]; 125 g ai/ha): 90
- Wheat plant response rating (0 to 100 scale) ([11]; 500 g ai/ha): 90
- Barnyardgrass plant response rating (0 to 100 scale) ([12]; 125 g ai/ha): 100
- Barnyardgrass plant response rating (0 to 100 scale) ([12]; 500 g ai/ha): 100
- Blackgrass plant response rating (0 to 100 scale) ([13]; 125 g ai/ha): 100
- Blackgrass plant response rating (0 to 100 scale) ([13]; 500 g ai/ha): 100
- Corn plant response rating (0 to 100 scale) (corn (Zea mays) [14]; 125 g ai/ha): 100
- Corn plant response rating (0 to 100 scale) (corn (Zea mays) [14]; 500 g ai/ha): 100
- Galium plant response rating (0 to 100 scale) ([15]; 125 g ai/ha): 70
- Galium plant response rating (0 to 100 scale) ([15]; 500 g ai/ha): 70
- Foxtail, Green plant response rating (0 to 100 scale) ([16]; 125 g ai/ha): 80
- Foxtail, Green plant response rating (0 to 100 scale) ([16]; 500 g ai/ha): 90
- Horseweed plant response rating (0 to 100 scale) ([17]; 125 g ai/ha): 80
- Horseweed plant response rating (0 to 100 scale) ([17]; 500 g ai/ha): 80
- Kochia plant response rating (0 to 100 scale) (kochia (Bassia scoparia) [18]; 125 g ai/ha): 80
- Kochia plant response rating (0 to 100 scale) (kochia (Bassia scoparia) [18]; 500 g ai/ha): 80
- Oat, Wild plant response rating (0 to 100 scale) ([19]; 125 g ai/ha): 90
- Oat, Wild plant response rating (0 to 100 scale) ([19]; 500 g ai/ha): 90
- Amaranth, Palmer / Pigweed, Palmer plant response rating (0 to 100 scale) ([20]; 125 g ai/ha): 100
- Amaranth, Palmer / Pigweed, Palmer plant response rating (0 to 100 scale) ([20]; 500 g ai/ha): 100
- Ragweed plant response rating (0 to 100 scale) ([21]; 125 g ai/ha): 70
- Ragweed plant response rating (0 to 100 scale) ([21]; 500 g ai/ha): 80
- Ryegrass, Italian plant response rating (0 to 100 scale) ([22]; 125 g ai/ha): 80
- Ryegrass, Italian plant response rating (0 to 100 scale) ([22]; 500 g ai/ha): 80
- Soybean plant response rating (0 to 100 scale) (soybean (Glycine max) [23]; 125 g ai/ha): 90
- Soybean plant response rating (0 to 100 scale) (soybean (Glycine max) [23]; 500 g ai/ha): 90
- Wheat plant response rating (0 to 100 scale) ([24]; 125 g ai/ha): 90
- Wheat plant response rating (0 to 100 scale) ([24]; 500 g ai/ha): 90
- Plant response rating, Barnyardgrass (0 to 100 scale, 0 is no effect and 100 is complete control) [25]: 75
- Plant response rating, Ducksalad (0 to 100 scale, 0 is no effect and 100 is complete control) [26]: 100
- Plant response rating, Rice (0 to 100 scale, 0 is no effect and 100 is complete control) (rice (Oryza sativa)): 15
- Plant response rating, Sedge, Umbrella (0 to 100 scale, 0 is no effect and 100 is complete control) [27]: 100
